The structures appear in SMILES notation.

The target of one series is T1, Human PARP-1 enzyme (Homo sapiens, UniProt P09874).
T1 construct: purchased Trevigen
The series is described as follows: In vitro Scintillation Proximity Assay (SPA) for PARP-1 inhibitory activity. It is filed as biochemical. The note with it: read-out: in vitro SPA assay PARP-1 pIC50 (converted). How it is done: Compounds of the present invention were tested in an in vitro assay based on SPA technology (proprietary to GE healthcare).
In principle, the assay relies upon the well established SPA technology for the detection of poly(ADP-ribosyl)ation of biotinylated target proteins, i.e histones. This ribosylation is induced using nicked DNA activated PARP-1 enzyme and [^3H]-nicotinamide adenine dinucleotide ([^3H]-NAD^+) as ADP-ribosyl donor.
Histones (type II-A, supplier: Sigma) were biotinylated using the biotinylation kit of Amersham and stored aliquoted at −20° C. A stock solution of 100 mg/ml SPA poly(vinyl toluene) (PVT) beads (supplier: Amersham) was made in PBS. A stock solution of 61.6 nM [^3H]-NAD^+ was made by adding [^3H]-NAD^+ (0.1 mCi/ml, supplier: Perkin Elmer) to incubation buffer (50 mM Tris/HCl, pH 8; 0.2 mM DTT; 4 mM MgCl2). A solution of 4 mM NAD^+ (supplier: Sigma) was made. Human PARP-1 enzyme was obtained from Trevigen. Biotinylated histones and PVT-SPA beads were mixed and pre-incubated for 30 min. at room temperature. PARP-1 enzyme (concentration was lot dependent) was mixed with the nicked DNA and the mixture was pre-incubated for 30 min. at 4° C. Equal parts of this histones/PVT-SPA beads solution and PARP-1 enzyme/DNA solution were mixed and 75 μl of this mixture together with 1 μl of compound in DMSO and 25 μl of [^3H]-NAD^+ was added per well into a 96-well microtiterplate. The final concentrations in the incubation mixture were 2 μg/ml for the biotinylated histones, 2 mg/ml for the PVT-SPA beads, 0.25 μg/ml for the nicked DNA and between 0.1-0.2 μg/ml for the PARP-1 enzyme. After incubation of the mixture for 20 min. at room temperature, the reaction was terminated by adding 100 μl of 4 mM NAD^+ in water (final concentration 2 mM) and plates were mixed. The beads were sedimented by centrifugation (10 min, 800 rpm). and plates transferred to a TopCountNXT™ (Packard) for scintillation counting, values were expressed as counts per minute (cpm). For each experiment, controls (containing PARP-1 enzyme and DMSO without compound), a blank incubation (containing DMSO but no PARP-1 enzyme, no DNA or compound) and samples (containing PARP-1 enzyme, DNA and compound dissolved in DMSO) were run in parallel. All compounds tested were dissolved and eventually further diluted in DMSO. A dose-response curve was made wherein the compounds were tested at concentrations between 10^−5M and 3×10^−9M. In each test, the blank value was subtracted from both the control and the sample values. The control sample represented maximal PARP-1 enzyme activity. For each sample, the amount of cpm was expressed as a percentage of the mean cpm value of the controls. When appropriate, IC50-values (concentration of the drug, needed to reduce the PARP-1 enzyme activity to 50% of the control) were computed using linear interpolation between the experimental points just above and below the 50% level. Herein the effects of test compounds are expressed as pIC50 (the negative log value of the IC50-value). As a reference compound, 4-amino-1,8-naphthalimide was included to validate the SPA assay.
(In general: In a scintillation proximity assay essentially only radioactivity close to the scintillant gives light.)

For another series, the system named is HCT116 cells. The series is described as follows: Antiproliferative activity, Alamar Blue assay, HCT116 cells. It is filed as cell-based, human. More on the design: key to HCT116 antiproliferative activity pIC50: pIC50 = -log IC50 (IC50: conc. reducing growth to 50% of control). The settings on record: for IC50: Homo sapiens, HCT-116, HCT116 cells, read-out: HCT116 antiproliferative activity pIC50 (converted). How it is done:
Human colon carcinoma HCT116 cells obtained from the ATCC were cultured in McCoy's 5 A medium supplemented with 2 mM L-Glutamine, 50 μg/ml gentamicin and 10% heat inactivated fetal calf serum.
(§1) Resazurin was purchased from Aldrich (Prod. No. 199303). Potassium ferrocyanide, potassium ferricyanide, KH2PO4 and K2HPO4 were purchased from Sigma (Prod. Nos. P9387, P8131, P5655 and P8281, respectively).
(§2) Potassium Phosphate Buffer 0.1 M (PPB) was made as follows: 2.72 gram KH2PO4 and 13.86 gram K2HPO4 were dissolved in 500 ml milli-Q H2O, the pH was adjusted to pH 7.4 and the volume was brought to 1 litre with milli-Q H2O; the buffer was filter sterilised and stored at room temperature. Resazurin stock solution (PPB-A) was prepared fresh by dissolving 45 mg resazurin in 15 ml PBS. 30 mM potassium ferricyanide (PPB-B) was prepared by dissolving 0.987 gram potassium ferricyanide in 100 ml PPB. 30 mM potassium ferrocyanide (PPB-C) was prepared by dissolving 1.266 gram potassium ferrocyanide in 100 ml PPB.
(§3) Mixture of PPB-A, PPB-B and PPB-C was prepared by mixing equal volumes of the respective solutions. Resazurin work solution (herein termed “Alamar Blue” solution) was prepared by diluting said mixture 20×(vol/vol) in PPB and filter sterilising; the Alamar Blue solution could be kept at 4° C. for a maximum of 2 weeks.
(§4) For experiments in 384 wells plates the cells were seeded at a density of 4.5×10^3 cells/ml in Falcon 384-well culture plates (Life Technologies, Merelbeke, Belgium), black with clear bottom, in 45 μl culture medium. Cells were allowed to adhere to plastic for 24 hr. The tested compound was pre-diluted (1/50 in culture medium) and 5 μl pre-diluted compound was added to the wells. Following 4-day incubation, 10 μl of the Alamar Blue solution was added to each well and the cells were further incubated for 4 hrs (HCT116) or 24 hrs (PC-3) at 37° C. The fluorescence intensity was measured for each well on a Fluorescence plate reader (Fluorskan, Labsystems, 540 nm excitation and 590 nm emission)
(§5) The antiproliferative activity was calculated as percentage of remaining viable cells in treated versus control (untreated cells) conditions. Within an experiment, the result for each experimental condition is the mean of 3 replicate wells. When appropriate, the experiments were repeated to establish full concentration-response curves. When appropriate, IC50-values (concentration of the drug, needed to reduce cell growth to 50% of the control) were computed using probit analysis for graded data (Finney, D. J., Probit Analyses, 2nd Ed. Chapter 10, Graded Responses, Cambridge University Press, Cambridge 1962). Herein the effects of test compounds are expressed as pIC50 (the negative log value of the IC50-value) (see Table 2).
(The colour change of resazurin is a common sign of viable cells or microbes.)

The test system of a further series is PC-3 cells. Nature of the series: Antiproliferative activity, Alamar Blue assay, PC-3 cells. It is filed as cell-based, human. The note with it: for IC50: Homo sapiens, PC-3, PC3 cells, read-out: PC3 antiproliferative activity pIC50 (converted). How it is done:
Human prostate cancer PC-3 cells obtained from the ATCC were cultured in HAM′S F12 medium supplemented with 1 mM Sodium Pyruvate, 1.5 g/L Sodium Bicarbonate, 50 μg/ml gentamicin, non-essential amino acids and 10% fetal calf serum.
as §1, §2, §3, §4, §5

The test system of another series is PC3 cells. Nature of the series: EB1 Comet (microtubule disruption) assay. It is filed as cell-based, human. The settings on record: 1 hour treatment; for minimal effective concentration: Homo sapiens, PC-3, 1 h, read-out: EB1 pLAC (converted). The procedure: The Eb1 Comet assay relies on the detection of the Eb1 protein at the plus end of polymerizing microtubules (Mimori-Kiyosue, 2000) using indirect immunofluorescence. Disruption of microtubule dynamics through de-polymerization or stabilization results in a de-localization of Eb1 from the growing microtubule ends and this is visualized by the disappearance of Eb1 containing cytoplasmic foci.
Briefly, human prostate cancer PC3 cells obtained from the American Type Culture Collection were grown in 96-well plates (Greiner, cat. no. 655090) in HAM's F12 medium as recommended by the provider (ATCC). The cells were treated for 1 hour at 37° C. with compounds dissolved in DMSO (0.6% final DMSO concentration). The culture medium was then removed by aspiration and the cells were fixed by adding cold methanol (−20 C). After a 15 min. incubation at −20 C, the cells were washed twice with DPBS (Gibco) containing 0.5% Triton X-100. Mouse Eb1 antibody (BD Transduction Laboratories, cat. no. 610534) was added to the cells (1/250 dilution in DPBS containing 1% BSA) and incubated overnight at room temperature. The antibody was subsequently removed and the cells washed twice with DPBS, 0.5% Triton X-100. Secondary goat anti-mouse antibody conjugated to Alexa 488 fluorescent dye (Molecular Probes) was added at a 1/500 dilution in DPBS, 1% BSA and incubated for 1 hour at 37 C. The cells were washed twice with DPBS, 0.5% Triton X-100 and then DPBS containing 0.5% Triton X-100 and 1/5000 Hoechst 33342 (Molecular Probes) was added. Microscopy based Eb1 foci visualization was carried out using an IN Cell Analyser 1000 (Amersham Biosciences) using a 20× objective. Compound dependent microtubule disruption was visually determined by the disappearance in Eb1 foci. The lowest active concentration (LAC) was determined as the concentration where Eb1 foci were absent in at least 50% of the treated cells.

T1 sequence (P09874 whole entry): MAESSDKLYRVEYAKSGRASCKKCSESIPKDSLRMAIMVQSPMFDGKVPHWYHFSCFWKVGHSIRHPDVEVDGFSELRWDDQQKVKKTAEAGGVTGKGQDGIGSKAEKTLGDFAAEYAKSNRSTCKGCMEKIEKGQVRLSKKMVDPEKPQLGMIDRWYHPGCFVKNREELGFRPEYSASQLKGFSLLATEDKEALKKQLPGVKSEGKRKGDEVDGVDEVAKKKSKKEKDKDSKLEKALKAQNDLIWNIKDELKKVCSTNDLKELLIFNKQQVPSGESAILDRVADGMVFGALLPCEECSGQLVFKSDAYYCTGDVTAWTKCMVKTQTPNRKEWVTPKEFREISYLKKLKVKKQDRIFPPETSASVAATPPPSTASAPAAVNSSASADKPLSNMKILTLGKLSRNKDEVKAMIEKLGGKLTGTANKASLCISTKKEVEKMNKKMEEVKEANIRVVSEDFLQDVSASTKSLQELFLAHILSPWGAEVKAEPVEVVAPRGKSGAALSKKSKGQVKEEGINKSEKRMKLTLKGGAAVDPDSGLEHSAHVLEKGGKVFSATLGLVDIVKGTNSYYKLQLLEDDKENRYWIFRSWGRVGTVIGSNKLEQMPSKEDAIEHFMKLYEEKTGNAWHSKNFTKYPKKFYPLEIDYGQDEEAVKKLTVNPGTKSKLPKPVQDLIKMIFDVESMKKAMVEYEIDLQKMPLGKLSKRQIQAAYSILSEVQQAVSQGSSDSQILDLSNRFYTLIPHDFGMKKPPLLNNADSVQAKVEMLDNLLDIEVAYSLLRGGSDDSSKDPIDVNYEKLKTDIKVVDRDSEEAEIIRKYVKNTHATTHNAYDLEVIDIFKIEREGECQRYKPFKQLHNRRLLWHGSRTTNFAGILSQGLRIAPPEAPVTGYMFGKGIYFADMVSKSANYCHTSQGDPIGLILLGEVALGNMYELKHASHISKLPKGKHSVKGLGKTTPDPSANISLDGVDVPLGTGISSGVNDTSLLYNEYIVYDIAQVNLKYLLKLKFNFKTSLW

Regarding `CCc1cc2ccc(C(C)(C#N)Cc3cccc(CC#N)c3)cc2[nH]c1=O` (stereo not drawn), the melting point came out at 150 °C.
In turn, `CCc1cc2ccc(C(C)(C#N)Cc3cccc(C#N)c3C)cc2[nH]c1=O` (stereo not drawn) [Compound 4] displayed a melting point of 174 °C.
Still for that read-out and setting: in the case of `CCc1cc2ccc(C(C)(C#N)Cc3ccc(OCCCN4CCOCC4)c(C#N)c3)cc2[nH]c1=O` (stereo not drawn) [Compound 5] it was 153 °C.
Regarding `Cc1cc2ccc(C(C)(C#N)C3CCc4cc(Br)ccc43)cc2[nH]c1=O` (stereo not drawn) [Compound 243], on Human PARP-1 enzyme, the IC50 was 0.316 µM. In the series with HCT116 cells (HCT116 cells), the “HCT116 antiproliferative activity pIC50” value is 5.4. Also, the “PC3 antiproliferative activity pIC50” value in the series with PC-3 cells (PC3 cells) was 5.2. The “EB1 pLAC” value with PC3 cells is 6.
Take `Cc1cc2ccc([C@](C)(C#N)[C@H]3CCCc4ccccc43)cc2[nH]c1=O` [Compound 383]: the IC50 on Human PARP-1 enzyme is 0.501 µM; with HCT116 cells it was 0.501 µM; in the series with PC-3 cells, 1.26 µM. Moreover, in the series on PC3 cells, the minimal effective concentration is 3.16 µM.
Turning to `Cc1cc2ccc(C(C)(C#N)Cc3cccc(C#CC(C)(C)O)n3)cc2[nH]c1=O` (stereo not drawn) [Compound 401], the results for the IC50 at Human PARP-1 enzyme, in the series with HCT116 cells and with PC-3 cells were 0.398 µM, 3.98 µM and 5.01 µM, respectively. Besides, the minimal effective concentration with PC3 cells was 3.16 µM.

The melting point is the temperature of the solid-liquid transition.
